# Data reported in patent US20260022143A1, “Cyclic Peptide Inhibitors of IL-23” (JANSSEN PHARMACEUTICA NV, priority 2022, published 2026).
# Starred links: 1 amine or outer side, 2 acyl side, 3 side chain; linkers in the order of their positions; H or OH if unused. Positions of bridges follow the written chain, without caps; N, C: chain ends. Non-standard residues stand in square brackets, D forms with d. Residues, ends and D or L forms follow the SMILES beside them. Groups on a side chain read outwards from the residue. *: point of attachment. Me3N+(CH2)2O(CH2)2O(CH2)2CO = C[N+](C)(C)CCOCCOCCC(=O)*; Trp(7-Me) = Cc1cccc2c(C[C@H](N)C(=O)O)c[nH]c12; γGlu = O=C(O)[C@H](CCC(=O)[*:2])N[*:1]; 2Nal = N[C@@H](Cc1ccc2ccccc2c1)C(=O)O; 3Pal = N[C@@H](Cc1cccnc1)C(=O)O; Myristoyl = CCCCCCCCCCCCCC(=O)*; Lys(Me) = CNCCCC[C@H](N)C(=O)O; Pen = CC(C)(S)[C@H](N)C(=O)O; Lauroyl = CCCCCCCCCCCC(=O)*; Thp = NC1(C(=O)O)CCOCC1; X3 = C[N+](C)(C)CCCCC*; AEEA = NCCOCCOCC(=O)O; Sar = CNCC(=O)O
# Assay: Exposed Polar Surface Area (EPSA)
# Assay type: physicochemical
# Conditions: SFC on Chirex 3014 column; sample 1 mM DMSO stock; read-out: EPSA
# Summary of the method: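 EPSA, in Å^2, is read from SFC retention time through a linear relationship established with eight calibration standards. Separation uses a Chirex 3014 stationary phase, 35 °C, 14 MPa back pressure, and a 5–60% methanol/ammonium formate modifier gradient in CO2.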
row,SMILES,EPSA [A^2]
1,"CCCCCCCCCCCC(=O)N[C@@H](CCC(=O)NCCOCCOCC(=O)NCCOCCOCC(=O)NCCCC[C@@H]1NC(=O)[C@@H](NC(=O)[C@@H](CCCCNC(=O)COCCOCCNC(=O)COCCOCCNC(=O)CC[C@H](NC(=O)CCCCCCCCCCC)C(=O)O)NC(=O)CCOCCOCC[N+](C)(C)C)C(C)(C)SSC(C)(C)[C@@H](C(=O)N[C@@H](Cc2ccc(OCCCCC[N+](C)(C)C)cc2)C(=O)N[C@@H](Cc2ccc3ccccc3c2)C(=O)NC2(C(=O)N[C@@H](CCCCN(C)C(C)=O)C(=O)N[C@@H](CC(N)=O)C(=O)N[C@@H](Cc3cccnc3)C(=O)N(C)CC(=O)N(C)C)CCOCC2)NC(=O)[C@H](CCCCN(C)C(C)=O)NC(=O)[C@H](Cc2c[nH]c3c(C)cccc23)NC(=O)[C@H]([C@@H](C)O)NC1=O)C(=O)O [compound 380, cPEG3aCO-k(PEG2PEG2gEC12)-Pen(3)-K(PEG2PEG2gEC12)-T-7MeW-K(NMeAc)-Pen(3)-TMAPF-2Nal-THP-K(NMeAc)-N-3Pya-Sar-CON(Me)2] ({Me3N+(CH2)2O(CH2)2O(CH2)2CO}-[dK]([AEEA-AEEA-γGlu-Lauroyl])[Pen]K([AEEA-AEEA-γGlu-Lauroyl])T[Trp(7-Me)][Lys(Me)](Ac)[Pen]Y(X3)[2Nal][Thp][Lys(Me)](Ac)N[3Pal][Sar]-NMe2; disulfide 2-7)",171
2,"CCCCCCCCCCCCCC(=O)N[C@@H](CCC(=O)NCCOCCOCC(=O)NCCOCCOCC(=O)NCCCC[C@@H]1NC(=O)[C@@H](NC(=O)[C@@H](CCCCNC(=O)COCCOCCNC(=O)COCCOCCNC(=O)CC[C@H](NC(=O)CCCCCCCCCCCCC)C(=O)O)NC(=O)CCOCCOCC[N+](C)(C)C)C(C)(C)SSC(C)(C)[C@@H](C(=O)N[C@@H](Cc2ccc(OCCCCC[N+](C)(C)C)cc2)C(=O)N[C@@H](Cc2ccc3ccccc3c2)C(=O)NC2(C(=O)N[C@@H](CCCCN(C)C(C)=O)C(=O)N[C@@H](CC(N)=O)C(=O)N[C@@H](Cc3cccnc3)C(=O)N(C)CC(=O)N(C)C)CCOCC2)NC(=O)[C@H](CCCCN(C)C(C)=O)NC(=O)[C@H](Cc2c[nH]c3c(C)cccc23)NC(=O)[C@H]([C@@H](C)O)NC1=O)C(=O)O [compound 381, cPEG3aCO-k(PEG2PEG2gEC14)-Pen(3)-K(PEG2PEG2gEC14)-T-7MeW-K(NMeAc)-Pen(3)-TMAPF-2Nal-THP-K(NMeAc)-N-3Pya-Sar-CON(Me)2] ({Me3N+(CH2)2O(CH2)2O(CH2)2CO}-[dK]([AEEA-AEEA-γGlu-Myristoyl])[Pen]K([AEEA-AEEA-γGlu-Myristoyl])T[Trp(7-Me)][Lys(Me)](Ac)[Pen]Y(X3)[2Nal][Thp][Lys(Me)](Ac)N[3Pal][Sar]-NMe2; disulfide 2-7)",171
3,"CCCCCCCCCCCCCC(=O)N[C@@H](CCC(=O)NCCOCCOCC(=O)NCCOCCOCC(=O)NCCCC[C@@H]1NC(=O)[C@@H](NC(=O)CCOCCOCC[N+](C)(C)C)C(C)(C)SSC(C)(C)[C@@H](C(=O)N[C@@H](Cc2ccc(OCCCCC[N+](C)(C)C)cc2)C(=O)N[C@@H](Cc2ccc3ccccc3c2)C(=O)NC2(C(=O)N[C@@H](CCCCN(C)C(C)=O)C(=O)N[C@@H](CC(N)=O)C(=O)N[C@@H](Cc3cccnc3)C(=O)N(C)CC(=O)N(C)C)CCOCC2)NC(=O)[C@H](CCCCN(C)C(C)=O)NC(=O)[C@H](Cc2c[nH]c3c(C)cccc23)NC(=O)[C@H]([C@@H](C)O)NC1=O)C(=O)O [compound 388, cPEG3aCO-Pen(3)-K(PEG2PEG2gEC14)-T-7MeW-K(NMeAc)-Pen(3)-TMAPF-2Nal-THP-K(NMeAc)-N-3Pya-Sar-CON(Me)2] ({Me3N+(CH2)2O(CH2)2O(CH2)2CO}-[Pen]K([AEEA-AEEA-γGlu-Myristoyl])T[Trp(7-Me)][Lys(Me)](Ac)[Pen]Y(X3)[2Nal][Thp][Lys(Me)](Ac)N[3Pal][Sar]-NMe2; disulfide 1-6)",161
4,"CC(=O)N(C)CCCC[C@@H]1NC(=O)[C@H](Cc2c[nH]c3c(C)cccc23)NC(=O)[C@H]([C@@H](C)O)NC(=O)[C@H](CCCCNC(=O)CCOCCOCC[N+](C)(C)C)NC(=O)[C@@H](NC(=O)CCOCCOCC[N+](C)(C)C)C(C)(C)SSC(C)(C)[C@@H](C(=O)N[C@@H](Cc2ccc(OCCCCC[N+](C)(C)C)cc2)C(=O)N[C@@H](Cc2ccc3ccccc3c2)C(=O)NC2(C(=O)N[C@@H](CCCCN(C)C(C)=O)C(=O)N[C@@H](CC(N)=O)C(=O)N[C@@H](Cc3cccnc3)C(=O)N(C)CC(=O)N(C)C)CCOCC2)NC1=O [compound 393, cPEG3aCO-Pen(3)-K(cPEG3a)-T-7MeW-K(NMeAc)-Pen(3)-TMAPF-2Nal-THP-K(NMeAc)-N-3Pya-Sar-CON(Me)2] ({Me3N+(CH2)2O(CH2)2O(CH2)2CO}-[Pen]K(Me3N+(CH2)2O(CH2)2O(CH2)2CO)T[Trp(7-Me)][Lys(Me)](Ac)[Pen]Y(X3)[2Nal][Thp][Lys(Me)](Ac)N[3Pal][Sar]-NMe2; disulfide 1-6)",144
5,"CCCCCCCCCCCCCC(=O)N[C@@H](CCC(=O)NCCOCCOCC(=O)NCCOCCOCC(=O)NCCCC[C@H](NC(=O)C1(NC(=O)[C@H](Cc2ccc3ccccc3c2)NC(=O)[C@H](Cc2ccc(OCCCCC[N+](C)(C)C)cc2)NC(=O)[C@H]2NC(=O)[C@H](CCCCN(C)C(C)=O)NC(=O)[C@H](Cc3c[nH]c4c(C)cccc34)NC(=O)[C@H]([C@@H](C)O)NC(=O)[C@H](CC(=O)N(C)C)NC(=O)[C@@H](NC(=O)[C@@H](CCCCNC(=O)COCCOCCNC(=O)COCCOCCNC(=O)CC[C@H](NC(=O)CCCCCCCCCCCCC)C(=O)O)NC(=O)CCOCCOCC[N+](C)(C)C)C(C)(C)SSC2(C)C)CCOCC1)C(=O)N[C@@H](CC(N)=O)C(=O)N[C@@H](Cc1cccnc1)C(=O)N(C)CC(=O)N(C)C)C(=O)O [compound 395, cPEG3aCO-k(PEG2PEG2gEC14)-Pen(3)-N(N(Me)2)-T-7MeW-K(NMeAc)-Pen(3)-TMAPF-2Nal-THP-K(PEG2PEG2gEC14)-N-3Pya-Sar-CON(Me)2] ({Me3N+(CH2)2O(CH2)2O(CH2)2CO}-[dK]([AEEA-AEEA-γGlu-Myristoyl])[Pen]D(NMe2)T[Trp(7-Me)][Lys(Me)](Ac)[Pen]Y(X3)[2Nal][Thp]K([AEEA-AEEA-γGlu-Myristoyl])N[3Pal][Sar]-NMe2; disulfide 2-7)",189
6,"CCCCCCCCCCCCCC(=O)N[C@@H](CCC(=O)NCCOCCOCC(=O)NCCOCCOCC(=O)NCCCC[C@@H]1NC(=O)[C@H](Cc2c[nH]c3c(C)cccc23)NC(=O)[C@H]([C@@H](C)O)NC(=O)[C@H](CCCCNC(=O)COCCOCCNC(=O)COCCOCCNC(=O)CC[C@H](NC(=O)CCCCCCCCCCCCC)C(=O)O)NC(=O)[C@@H](NC(=O)CCOCCOCC[N+](C)(C)C)C(C)(C)SSC(C)(C)[C@@H](C(=O)N[C@@H](Cc2ccc(OCCCCC[N+](C)(C)C)cc2)C(=O)N[C@@H](Cc2ccc3ccccc3c2)C(=O)NC2(C(=O)N[C@@H](CCCCN(C)C(C)=O)C(=O)N[C@@H](CC(N)=O)C(=O)N[C@@H](Cc3cccnc3)C(=O)N(C)CC(=O)N(C)C)CCOCC2)NC1=O)C(=O)O [compound 396, cPEG3aCO-Pen(3)-K(PEG2PEG2gEC14)-T-7MeW-K(PEG2PEG2gEC14)-Pen(3)-TMAPF-2Nal-THP-K(NMeAc)-N-3Pya-Sar-CON(Me)2] ({Me3N+(CH2)2O(CH2)2O(CH2)2CO}-[Pen]K([AEEA-AEEA-γGlu-Myristoyl])T[Trp(7-Me)]K([AEEA-AEEA-γGlu-Myristoyl])[Pen]Y(X3)[2Nal][Thp][Lys(Me)](Ac)N[3Pal][Sar]-NMe2; disulfide 1-6)",172
